Experimental findings from patent US8765779B2, “Tricyclic derivatives and their pharmaceutical use and compositions” (Cephalon, Inc., priority 2009, dated 2014) are described below.

A word on the Ki: it is the equilibrium dissociation constant of an inhibitor or competing ligand from its target.

Where a name gives a salt, the structure may show the parent alone.

T1 sequence (P50406 whole entry): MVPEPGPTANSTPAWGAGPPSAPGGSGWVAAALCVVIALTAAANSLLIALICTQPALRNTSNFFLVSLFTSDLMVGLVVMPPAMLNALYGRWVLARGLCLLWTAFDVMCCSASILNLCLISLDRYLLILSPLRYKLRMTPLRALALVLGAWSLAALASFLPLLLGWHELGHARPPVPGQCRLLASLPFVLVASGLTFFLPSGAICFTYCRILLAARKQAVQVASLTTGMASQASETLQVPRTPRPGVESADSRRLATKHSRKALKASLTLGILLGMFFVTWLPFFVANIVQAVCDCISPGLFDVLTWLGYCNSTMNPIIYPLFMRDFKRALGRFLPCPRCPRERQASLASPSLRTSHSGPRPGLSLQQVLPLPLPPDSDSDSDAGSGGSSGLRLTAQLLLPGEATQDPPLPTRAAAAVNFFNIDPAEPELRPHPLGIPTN

This experiment addresses T1, human 5-HT6 receptor (Homo sapiens, UniProt P50406).
T1 construct: host or cells: CHO-K1 cells, stably transfected; membranes prepared in house
The experiment in a line: Human 5-HT6 Receptor Binding Assay ([3H]LSD displacement, scintillation beads). The note with it: membranes of CHO-K1 cells with recombinant human 5-HT6, 4 nM [3H]LSD; Table 1, class symbols; read-out: h5-HT6 (Ki).
As to `O=S(=O)(c1ccc(Cl)cc1)c1ccc2oc3c(c2c1)CCNC3` [Example 250], the Ki was less than 500 nM.
`O=S(=O)(c1ccc2ccccc2c1)c1ccc2oc3c(c2c1)CCNC3` [Example 251]: the Ki is less than 500 nM.
The figure for `Cc1ccc(S(=O)(=O)c2ccc3oc4c(c3c2)CCNC4)cc1` [Example 252] is less than 500 nM.
Under `O=[N+]([O-])c1ccc(S(=O)(=O)c2ccc3oc4c(c3c2)CCNC4)cc1` [Example 253] stands more than 1000 nM; under `Cc1ccc(F)cc1S(=O)(=O)c1ccc2oc3c(c2c1)CCNC3` [Example 254], less than 500 nM.
As for `O=S(=O)(c1cc(F)cc(Cl)c1)c1ccc2oc3c(c2c1)CCNC3` [Example 255], the inhibitory constant (Ki) is less than 500 nM.
Regarding `O=S(=O)(c1cc(F)cc(F)c1)c1ccc2oc3c(c2c1)CCNC3` [Example 256], the inhibition constant Ki was less than 500 nM.
Under `O=S(=O)(c1ccc(Cl)c(C(F)(F)F)c1)c1ccc2oc3c(c2c1)CCNC3` [Example 257] stands less than 500 nM; under `O=S(=O)(c1ccc(F)c(Cl)c1)c1ccc2oc3c(c2c1)CCNC3` [Example 258], less than 500 nM; under `CC(C)c1ccc(S(=O)(=O)c2ccc3oc4c(c3c2)CCNC4)cc1` [Example 259], less than 500 nM.
The figure for `O=S(=O)(c1ccc2oc3c(c2c1)CCNC3)c1cccc(Cl)c1Cl` [Example 260, 6-[(2,3-dichlorophenyl)sulfonyl]-1,2,3,4-tetrahydro[1]benzofuro[2,3-c]pyridine] is less than 500 nM.
Under `O=S(=O)(c1ccc(Cl)c(Cl)c1)c1ccc2oc3c(c2c1)CCNC3` [Example 261, 6-[(3,4-dichlorophenyl)sulfonyl]-1,2,3,4-tetrahydro[1]benzofuro[2,3-c]pyridine] stands less than 500 nM; under `O=S(=O)(c1cc(Cl)cc(Cl)c1)c1ccc2oc3c(c2c1)CCNC3` [Example 262, 6-[(3,5-dichlorophenyl)sulfonyl]-1,2,3,4-tetrahydro[1]benzofuro[2,3-c]pyridine], less than 500 nM; under `O=S(=O)(c1cccc(Br)c1)c1ccc2oc3c(c2c1)CCNC3` [Example 263, 6-[(3-bromophenyl)sulfonyl]-1,2,3,4-tetrahydro[1]benzofuro[2,3-c]pyridine], less than 500 nM.
Regarding `O=S(=O)(c1ccc(F)cc1)c1ccc2oc3c(c2c1)CCNC3` [Example 264], the Ki was less than 500 nM.
Under `O=S(=O)(c1ccc2oc3c(c2c1)CCNC3)c1cc(Cl)ccc1Cl` [Example 266, 6-[(2,5-dichlorophenyl)sulfonyl]-1,2,3,4-tetrahydro[1]benzofuro[2,3-c]pyridine] stands less than 500 nM; under `CC(C)Oc1cccc(S(=O)(=O)c2ccc3oc4c(c3c2)CCNC4)c1` [Example 267], less than 500 nM; under `Cc1cc(S(=O)(=O)c2ccc3oc4c(c3c2)CCNC4)ccc1F` [Example 268], less than 500 nM.
Consider `COC(=O)c1cccc(S(=O)(=O)c2ccc3oc4c(c3c2)CCNC4)c1` [Example 269], for which the Ki fell in the range of 500 to 1000 nM.
Under `O=S(=O)(c1cccc(OC(F)(F)F)c1)c1ccc2oc3c(c2c1)CCNC3` [Example 270, 6-{[3-(trifluoromethoxy)phenyl]sulfo-nyl}-1,2,3,4-tetrahydro[1]benzofuro[2,3-c]pyridine] stands less than 500 nM; under `N#Cc1ccc(S(=O)(=O)c2ccc3oc4c(c3c2)CCNC4)cc1` [Example 271], more than 1000 nM; under `CC(=O)Nc1ccc(S(=O)(=O)c2ccc3oc4c(c3c2)CCNC4)cc1` [Example 272], 500 to 1000 nM.
The figure for `O=S(=O)(c1ccc2oc3c(c2c1)CCNC3)c1cc(F)ccc1F` [Example 273] is less than 500 nM; for `O=S(=O)(c1ccc2oc3c(c2c1)CCNC3)c1c(F)c(F)cc(F)c1F` [Example 274] it is less than 500 nM; for `O=S(=O)(c1ccc(OC(F)(F)F)cc1)c1ccc2oc3c(c2c1)CCNC3` [Example 275, 6-{[4-(trifluoromethoxy)phenyl]sulfo-nyl}-1,2,3,4-tetrahydro[1]benzofuro[2,3-c]pyridine] it is 500 to 1000 nM.
Under `O=S(=O)(c1ccc2oc3c(c2c1)CCNC3)c1ccccc1Cl` [Example 276] stands less than 500 nM; under `O=S(=O)(c1ccc2oc3c(c2c1)CCNC3)c1ccccc1F` [Example 277], less than 500 nM.
For `O=S(=O)(c1ccc(C(F)(F)F)cc1)c1ccc2oc3c(c2c1)CCNC3` [Example 278], the inhibition constant Ki was less than 500 nM.
The figure for `[O-][S+](c1ccc2oc3c(c2c1)CCNC3)c1ccccc1-c1ccccc1` (stereo not shown) [Example 279] is less than 500 nM.
Under `O=S(=O)(c1ccc2oc3c(c2c1)CCNC3)C1CCCCC1` [Example 280] stands more than 1000 nM; under `CC(C)S(=O)(=O)c1ccc2oc3c(c2c1)CCNC3` [Example 281], more than 1000 nM.
As for `CC1NCCc2c1oc1ccc(S(=O)(=O)c3cccc(C(F)(F)F)c3)cc21` (stereo not shown) [Example 282], the Ki is less than 500 nM.
The figure for `CC1NCCc2c1oc1ccc(S(=O)(=O)c3cccc(F)c3)cc21` (stereo not shown) [Example 283] is less than 500 nM; for `CC1NCCc2c1oc1ccc(S(=O)(=O)c3ccc(F)c(F)c3)cc21` (stereo not shown) [Example 284] it is less than 500 nM.
As for `COc1ccc(S(=O)(=O)c2ccc3oc4c(c3c2)CCNC4C)cc1F` (stereo not shown) [Example 285], the Ki was more than 1000 nM.
The figure for `CC1(C)CNCc2oc3cc(S(=O)(=O)c4ccccc4)ccc3c21` [Example 286] is less than 500 nM; for `CC1(C)CNCc2oc3cc(S(=O)(=O)c4cc(F)cc(F)c4)ccc3c21` [Example 287] it is less than 500 nM; for `COc1ccc(S(=O)(=O)c2ccc3c4c(oc3c2)C(C)(C)NCC4)cc1F` [Example 288] it is less than 500 nM.
Under `CC1(C)NCCc2c1oc1cc(S(=O)(=O)c3cccc(C(F)(F)F)c3)ccc21` [Example 289] stands less than 500 nM; under `CC1(C)NCCc2c1oc1cc(S(=O)(=O)c3ccc(F)c(F)c3)ccc21` [Example 290], less than 500 nM.
`CC1(C)NCCc2c1oc1cc(S(=O)(=O)c3cccc(OC(F)(F)F)c3)ccc21` [Example 291, 1,1-dimethyl-7-{[3-(trifluoromethoxy)phenyl]sulfo-nyl}-1,2,3,4-tetrahydro[1]benzofuro[2,3-c]pyridine]: the inhibition constant (Ki) is less than 500 nM.
The figure for `CC1(C)NCCc2c1oc1cc(S(=O)(=O)c3ccccc3)ccc21` [Example 292] is less than 500 nM.
Under `CC1(C)NCCc2c1oc1cc(S(=O)(=O)c3cc(F)cc(F)c3)ccc21` [Example 293] stands less than 500 nM; under `O=S(=O)(c1cccc(Cl)c1)c1ccc2c(c1)C1CCNCC1O2` (stereo not shown) [Example 294, 6-[(3-Chlorophenyl)sulfonyl]-1,2,3,4,4a,9a-hexahydro[1]benzofuro[2,3-c]pyridine trifluoroacetic acid salt], less than 500 nM; under `CC1(C)CNC2(CCOC2)c2oc3cc(S(=O)(=O)c4ccccc4)ccc3c21` (stereo not shown) [Example 295], less than 500 nM.
The figure for `O=S(=O)(c1ccccc1)c1ccc2c3c(oc2c1)C1(CCOCC1)NCC3` [Example 296] is less than 500 nM; for `[O-][S+](c1cccc(C(F)(F)F)c1)c1ccc2c3c(oc2c1)C1(CCOCC1)NCC3` (stereo not shown) [Example 297] it is less than 500 nM.
For the compound `O=S(=O)(c1cccc(C(F)(F)F)c1)c1ccc2c3c(oc2c1)C1(CCOCC1)NCC3` [Example 298], the inhibition constant (Ki) was less than 500 nM.
With `[O-][S+](c1cccc(OC(F)(F)F)c1)c1ccc2c3c(oc2c1)C1(CCOCC1)NCC3` (stereo not shown) [Example 299, 7-{[3-(trifluoromethoxy)phenyl]sulfi-nyl}-2′,3,3′,4,5′,6′-hexahydro-2H-spiro[1-benzofuro[2,3-c]pyridine-1,4′-pyran]], the Ki is less than 500 nM.
Under `O=S(=O)(c1cccc(OC(F)(F)F)c1)c1ccc2c3c(oc2c1)C1(CCOCC1)NCC3` [Example 300, 7-{[3-(trifluoromethoxy)phenyl]sulfo-nyl}-2′,3,3′,4,5′,6′-hexahydro-2H-spiro[1-benzofuro[2,3-c]pyridine-1,4′-pyran]] stands less than 500 nM; under `O=S(=O)(c1cc(F)cc(F)c1)c1ccc2c3c(oc2c1)C1(CCOCC1)NCC3` [Example 301, 7-[(3,5-difluorophenyl)sulfonyl]-2′,3,3′,4,5′,6′-hexahydro-2H-spiro[1-benzofuro[2,3-c]pyridine-1,4′-pyran]], less than 500 nM.
Under `O=S(=O)(c1cc(F)cc(F)c1)c1ccc2c3c(oc2c1)C1(CCOC1)NCC3` (stereo not shown) [Example 302] stands less than 500 nM.
The figure for `O=S(=O)(c1cccc(Cl)c1)c1ccc2c3c(oc2c1)C1(CCOC1)NCC3` (stereo not shown) [Example 303] is less than 500 nM.
Consider `O=S(=O)(c1cccc(C(F)(F)F)c1)c1ccc2c3c(oc2c1)C1(CCOC1)NCC3` (stereo not shown) [Example 304], for which the Ki was less than 500 nM.
Take `O=S(=O)(c1cc(F)cc(F)c1)c1ccc2c3c(oc2c1)C1(CCOC1)NCC3` (stereo not shown) [Example 305]: the inhibition constant Ki is less than 500 nM.
Under `O=S(=O)(c1cccc(Cl)c1)c1ccc2c3c(oc2c1)C1(CCOC1)NCC3` (stereo not shown) [Example 306] stands less than 500 nM; under `O=S(=O)(c1cccc(C(F)(F)F)c1)c1ccc2c3c(oc2c1)C1(CCOC1)NCC3` (stereo not shown) [Example 307], less than 500 nM; under `O=S(=O)(c1cc(F)cc(F)c1)c1ccc2c3c([nH]c2c1)C1(CCCOC1)NCC3` (stereo not shown) [Example 312], less than 500 nM.
Under `O=S(=O)(c1cccc(F)c1)c1ccc2c3c([nH]c2c1)C1(CCCOC1)NCC3` (stereo not shown) [Example 317] stands less than 500 nM; under `O=S(=O)(c1ccccc1)c1ccc2c(c1)OC1CNCCC21` (stereo not shown) [Example 321, 7-(phenylsulfonyl)-1,2,3,4,4a,9a-hexahydro[1]benzofuro[2,3-c]pyridine], less than 500 nM; under `O=S(=O)(c1ccc(Cl)cc1)c1ccc2c(c1)OC1CNCCC21` (stereo not shown) [Example 322], less than 500 nM.
The figure for `COc1ccc(S(=O)(=O)c2ccc3c(c2)OC2CNCCC32)cc1` (stereo not shown) [Example 323] is more than 1000 nM.
Take `O=S(=O)(c1ccccc1)c1ccc2c(c1)OC1CNCCC21` (stereo not shown) [Example 324, 7-(phenylsulfonyl)-1,2,3,4,4a,9a-hexahydro[1]benzofuro[2,3-c]pyridine]: the Ki was less than 500 nM.
Turning to `COc1ccc(S(=O)(=O)c2ccc3c(c2)OC2CNCCC32)cc1` (stereo not shown) [Example 325], the Ki lay within 500 to 1000 nM.
